B1: 10D6 Fab: Fab fragments of antibody 10D6 obtained by immobilized papain digestion and removal of Fc (antibody, V domains shown)
VH: DVQLQESGPGLVKPSQSLSLTCTVTGYSITSDYAWNWIRQFPGNKLEWMGYINYSGNTDYNPSLKSRSSITRDTSKNQFFLQLNSVTTGDTATYYCARGNFEGAMDYWGQGTSVTVSS
VL: SIVMTQTPKFLLVSAGDRVTITCKASQSVSNDVAWYQQKPGQSPKLLIYYASNRYPGVPDRFTGSGYGTDFTFTISTVQAEDLAVYFCQQDYSSPWTFGGGTKLEIK

Experiments:
[1] = test system: LLC tumor; experiment: Co-administration of anti-Ang2 antibody and cisplatin in LLC lung cancer animal model; assay type: in vivo, mouse; conditions: LLC mice; antibody 10 mg/kg i.p. every three days, five times; cisplatin 3 mg/kg i.p. once; control Fc of IgG1
Method: The synergistic effect of co-treatment of antibody 10D6 and cisplatin was examined.
In particular, referring to Example 14, LLC tumor cells were subcutaneously injected into mice. When the size of tumors reached 50˜100 mm^3, anti-Ang2 antibody 10D6 was injected at the concentration of 10 mg/kg via an intraperitoneal injection every three days a total of five times. After administering antibody 10D6 twice, 3 mg/kg of cisplatin (Sigma-Aldrich) was intraperitoneally injected once. The size of tumor (V) was calculated using the following formula: Volume (V)=(width)2×length/2
For comparison, the same experiment was performed to a control group treated with Fc of IgG1 and a comparative group treated with antibody 4H10.
In addition, an experiment was performed to examine whether the synergistic effect obtained by co-administration of 10D6 and cisplatin as described above is due to the increased transporting efficiency of the administered cisplatin induced by the vascular normalization by treatment of 10D6. Cisplatin binds to DNA in a living body and induces crosslinking, thereby inducing cell death. Rat monoclonal anti-Cisplatin modified DNA (CP9/19) antibody (1:200, Abcam), which is capable of binding to DNA modified by cisplatin in tumor frozen sections, and hamster anti-CD31 antibody (1:200, Millipore), were used for immunofluorescence staining, and fluorescence images were obtained using LSM5 confocal microscope (Zeiss). In addition, to examine necrotic region, the tumor frozen sections were stained with H&E according to standard protocol, and then, Eosin+ cell region in tumor was observed. The obtained results are illustrated in FIG. 18C.

[2] = test system: Tie2 receptor; experiment: Tie2, Akt and 42/44 phosphorylation in HUVEC: antibody 10D6 versus 10D6 Fab; assay type: cell-based, human; conditions: 60 nM 10D6 antibody or 10D6 Fab with 40 nM Ang2
Method: To see whether the activation of a Tie2 receptor is resulted from the dimerization of antibody 10D6, Fab fragments of antibody 10D6 were purified and then used for this experiment. The Fab fragments were obtained from antibody 10D6 using an Fab Preparation Kit (Pierce). As a digestion buffer, PBS containing 20 mM EDTA and 20 mM L-Cysteine was used, and the antibody was separated into Fab and Fc by the treatment with an immobilized papain at a room temperature for 2 hours. The Fc fragments were removed from the reaction solution using MabSelectSuRe column (GE Healthcare) to isolate and purify pure Fab fragments only.
HUVEC (ATCC) cells (1×10^6) were cultured in a 100 mm culture dish using EGM-2 (Lonza) media at 37° C. and when they reached 80˜90% confluency, the media were replaced with serum-free media (Lonza) and cultured at 37° C. for 6 to 16 hours. The dish was washed once with PBS and after the replacement with […] sodium orthovanadate (Sigma)-mixed serum free media (Lonza), they were further cultured for 10 min. After washed once with PBS, the cultured cells were treated with a mixture prepared by mixing 60 nM of 10D6 Ang2 antibody or 10D6 Fab with 40 nM of Ang2 protein (R&D systems) and letting them stand for 20 min. and further cultured for 10 min. […]

Molecule | tumor size decreased by, compared to the control [1] | phosphorylation of Tie2, Akt and 42/44 [2]
N.N.[Cl][Pt][Cl] [cisplatin, reference compound] | 17.6% | –
B1 | – | activation was not observed
